In patent publication US9777020B2, “Furo-3-carboxamide derivatives and methods of use” (AbbVie Inc., priority 2014, dated 2017):

Molecular target: TrkA (Homo sapiens (Human), UniProt P04629)
Assay: TrkA kinase HTRF enzyme inhibition assay
Type: biochemical
Settings: TrkA pre-incubated with 200 μM ATP
In short: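 HTRF ratio read-out of biotin-peptide (125 nM) phosphorylation, 1 h reaction after TrkA (2-10 nM) auto-activation with ATP (200 μM) for 20 min and 10 min compound pre-incubation in 50 mM HEPES pH 7.4 with MgCl2/MnCl2. Percent inhibition from initial rates in duplicate, fitted to single-site equation for IC50.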

Chain of TrkA (P04629 33-796): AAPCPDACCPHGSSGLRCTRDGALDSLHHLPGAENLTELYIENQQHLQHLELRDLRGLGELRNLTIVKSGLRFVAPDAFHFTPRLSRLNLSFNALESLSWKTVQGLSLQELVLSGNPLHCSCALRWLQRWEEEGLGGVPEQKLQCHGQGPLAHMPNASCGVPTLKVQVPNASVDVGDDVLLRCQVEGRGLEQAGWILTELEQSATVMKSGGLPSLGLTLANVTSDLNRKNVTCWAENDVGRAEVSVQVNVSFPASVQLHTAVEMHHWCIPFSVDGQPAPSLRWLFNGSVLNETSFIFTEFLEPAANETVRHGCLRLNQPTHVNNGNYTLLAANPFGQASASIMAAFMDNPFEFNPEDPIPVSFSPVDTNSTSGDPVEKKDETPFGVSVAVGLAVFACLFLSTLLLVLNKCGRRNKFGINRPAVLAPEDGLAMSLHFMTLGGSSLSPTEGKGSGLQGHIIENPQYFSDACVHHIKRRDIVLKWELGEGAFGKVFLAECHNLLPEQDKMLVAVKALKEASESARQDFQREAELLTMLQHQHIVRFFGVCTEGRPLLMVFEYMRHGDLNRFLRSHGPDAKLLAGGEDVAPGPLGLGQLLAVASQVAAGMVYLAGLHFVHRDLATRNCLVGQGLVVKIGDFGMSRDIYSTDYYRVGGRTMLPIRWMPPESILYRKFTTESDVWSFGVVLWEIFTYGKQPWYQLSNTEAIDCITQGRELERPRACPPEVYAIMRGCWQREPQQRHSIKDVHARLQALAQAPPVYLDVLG

| IC50 | Compound |
| --- | --- |
| 54.8 nM | CC1(C)CC(=O)c2c(C(=O)Nc3ccc(N4CCN(S(C)(=O)=O)CC4)cn3)coc2C1 [Example 155, 6,6-dimethyl-N-{5-[4-(methylsulfonyl)piperazin-1-yl]pyridin-2-yl}-4-oxo-4,5,6,7-tetrahydro-1-benzofuran-3-carboxamide] |
| 46.7 nM | CC(=O)N1CCN(c2ccc(NC(=O)c3coc4c3C(=O)CC(C)(C)C4)nc2)CC1 [Example 156, N-[5-(4-acetylpiperazin-1-yl)pyridin-2-yl]-6,6-dimethyl-4-oxo-4,5,6,7-tetrahydro-1-benzofuran-3-carboxamide] |
| 6.4 nM | COc1cc(N2CCNCC2)ccc1NC(=O)c1coc2c1C(=O)CC(C)(C)C2 [Example 157, N-[2-methoxy-4-(piperazin-1-yl)phenyl]-6,6-dimethyl-4-oxo-4,5,6,7-tetrahydro-1-benzofuran-3-carboxamide] |
| 4.2 nM | COc1cc(N2CCN(C(C)=O)CC2)ccc1NC(=O)c1coc2c1C(=O)CC(C)(C)C2 [Example 158, N-[4-(4-acetylpiperazin-1-yl)-2-methoxyphenyl]-6,6-dimethyl-4-oxo-4,5,6,7-tetrahydro-1-benzofuran-3-carboxamide] |
| 10.3 nM | Cn1cc2cc(NC(=O)c3coc4c3C(=O)CC3(CC3)C4)ccc2n1 [Example 159, N-(2-methyl-2H-indazol-5-yl)-4-oxo-4,7-dihydro-5H-spiro[1-benzofuran-6,1′-cyclopropane]-3-carboxamide] |
| 258 nM | Cn1cc2cc(NC(=O)c3coc4c3C(=O)CNC4)ccc2n1 [Example 160, N-(2-methyl-2H-indazol-5-yl)-4-oxo-4,5,6,7-tetrahydrofuro[2,3-c]pyridine-3-carboxamide] |
| 872 nM | Cn1cc2cc(NC(=O)c3coc4c3C(=O)CN(S(C)(=O)=O)C4)ccc2n1 [Example 161, N-(2-methyl-2H-indazol-5-yl)-6-(methylsulfonyl)-4-oxo-4,5,6,7-tetrahydrofuro[2,3-c]pyridine-3-carboxamide] |
| 58 nM | Cn1cc2cc(NC(=O)c3coc4c3C(=O)CC(C)(C(N)=O)C4)ccc2n1 (centres unmarked) [Example 162, 6-methyl-N^3-(2-methyl-2H-indazol-5-yl)-4-oxo-4,5,6,7-tetrahydro-1-benzofuran-3,6-dicarboxamide] |
| 156 nM | COC(=O)C1(C)CC(=O)c2c(C(=O)Nc3ccc4nn(C)cc4c3)coc2C1 (centres unmarked) [Example 163, methyl 6-methyl-3-[(2-methyl-2H-indazol-5-yl)carbamoyl]-4-oxo-4,5,6,7-tetrahydro-1-benzofuran-6-carboxylate] |
| 21.9 nM | Cn1cc2cc(NC(=O)c3coc4c3C(=O)CC(C)(CO)C4)ccc2n1 (centres unmarked) [Example 164, 6-(hydroxymethyl)-6-methyl-N-(2-methyl-2H-indazol-5-yl)-4-oxo-4,5,6,7-tetrahydro-1-benzofuran-3-carboxamide] |
| 13.3 nM | COc1cc(N2CCN(C(=O)OC(C)(C)C)CC2)ccc1NC(=O)c1coc2c1C(=O)CC(C)(CO)C2 (centres unmarked) [Example 165, tert-butyl 4-[4-({[6-(hydroxymethyl)-6-methyl-4-oxo-4,5,6,7-tetrahydro-1-benzofuran-3-yl]carbonyl}amino)-3-methoxyphenyl]piperazine-1-carboxylate] |
| 104 nM | COCC1(C)CC(=O)c2c(C(=O)Nc3ccc(N4CCNCC4)cc3OC)coc2C1 (centres unmarked) [Example 166, 6-(methoxymethyl)-N-[2-methoxy-4-(piperazin-1-yl)phenyl]-6-methyl-4-oxo-4,5,6,7-tetrahydro-1-benzofuran-3-carboxamide] |
| 35.3 nM | Cn1cc2cc(NC(=O)c3coc4c3C(=O)C(C)(CO)CC4)ccc2n1 (centres unmarked) [Example 167, 5-(hydroxymethyl)-5-methyl-N-(2-methyl-2H-indazol-5-yl)-4-oxo-4,5,6,7-tetrahydro-1-benzofuran-3-carboxamide] |
| 59.6 nM | COc1cc(N2CCN(C(C)=O)CC2)ccc1NC(=O)c1coc2c1C(=O)C(C)(CN)CC2 (centres unmarked) [Example 169, N-[4-(4-acetylpiperazin-1-yl)-2-methoxyphenyl]-5-(aminomethyl)-5-methyl-4-oxo-4,5,6,7-tetrahydro-1-benzofuran-3-carboxamide] |
| 56.5 nM | COc1cc(N2CCN(C(C)=O)CC2)ccc1NC(=O)c1coc2c1C(=O)C1(CCNCC1)OC2 [Example 170, N-[4-(4-acetylpiperazin-1-yl)-2-methoxyphenyl]-4-oxo-4,7-dihydrospiro[furo[2,3-c]pyran-5,4′-piperidine]-3-carboxamide] |
| 2.9 nM | COc1nc(N2CCN(C(C)=O)CC2)ccc1NC(=O)c1coc2c1C(=O)C(C)(C)OC2 [Example 171, N-[6-(4-acetylpiperazin-1-yl)-2-methoxypyridin-3-yl]-5,5-dimethyl-4-oxo-4,7-dihydro-5H-furo[2,3-c]pyran-3-carboxamide] |
| 60 nM | COc1cc(N2CCN(C(C)=O)CC2)ccc1NC(=O)c1coc2c1C(=O)C1(COC1)OC2 [Example 172, N-[4-(4-acetylpiperazin-1-yl)-2-methoxyphenyl]-4-oxo-4,7-dihydrospiro[furo[2,3-c]pyran-5,3′-oxetane]-3-carboxamide] |
| 3.5 nM | CCOc1nc(N2CCN(C(C)=O)CC2)ccc1NC(=O)c1coc2c1C(=O)N(C)C(C)(C)C2 [Example 173, N-[6-(4-acetylpiperazin-1-yl)-2-ethoxypyridin-3-yl]-5,6,6-trimethyl-4-oxo-4,5,6,7-tetrahydrofuro[3,2-c]pyridine-3-carboxamide] |
| 5.2 nM | CCOc1nc(N2CCN(C(C)=O)CC2)ccc1NC(=O)c1coc2c1C(=O)N(CCO)C(C)(C)C2 [Example 174, N-[6-(4-acetylpiperazin-1-yl)-2-ethoxypyridin-3-yl]-5-(2-hydroxyethyl)-6,6-dimethyl-4-oxo-4,5,6,7-tetrahydrofuro[3,2-c]pyridine-3-carboxamide] |
| 4.7 nM | CCOc1nc(N2CCN(C(C)=O)CC2)ccc1NC(=O)c1coc2c1C(=O)N(CCOC)C(C)(C)C2 [Example 175, N-[6-(4-acetylpiperazin-1-yl)-2-ethoxypyridin-3-yl]-5-(2-methoxyethyl)-6,6-dimethyl-4-oxo-4,5,6,7-tetrahydrofuro[3,2-c]pyridine-3-carboxamide] |
| 2.1 nM | CCOc1nc(N2CCN(C(C)=O)CC2)ccc1NC(=O)c1coc2c1C(=O)N(CCOCCO)C(C)(C)C2 [Example 176, N-[6-(4-acetylpiperazin-1-yl)-2-ethoxypyridin-3-yl]-5-[2-(2-hydroxyethoxyl)ethyl]-6,6-dimethyl-4-oxo-4,5,6,7-tetrahydrofuro[3,2-c]pyridine-3-carboxamide] |
| 5.2 nM | CC(=O)N1CCN(c2ccc(NC(=O)c3coc4c3C(=O)NC(C)(C)C4)c(OCC(F)(F)F)n2)CC1 [Example 178, N-[6-(4-acetylpiperazin-1-yl)-2-(2,2,2-trifluoroethoxyl)pyridin-3-yl]-6,6-dimethyl-4-oxo-4,5,6,7-tetrahydrofuro[3,2-c]pyridine-3-carboxamide] |
| 4.9 nM | CC(=O)N1CCN(c2ccc(NC(=O)c3coc4c3C(=O)NC(C)(C)C4)c(OC3COC3)n2)CC1 [Example 179, N-[6-(4-acetylpiperazin-1-yl)-2-(oxetan-3-yloxy)pyridin-3-yl]-6,6-dimethyl-4-oxo-4,5,6,7-tetrahydrofuro[3,2-c]pyridine-3-carboxamide] |
| 11 nM | CC(=O)N1CCN(c2ccc(NC(=O)c3coc4c3C(=O)NC(C)(C)C4)c(OC3CCOCC3)n2)CC1 [Example 180, N-[6-(4-acetylpiperazin-1-yl)-2-(tetrahydro-2H-pyran-4-yloxy)pyridin-3-yl]-6,6-dimethyl-4-oxo-4,5,6,7-tetrahydrofuro[3,2-c]pyridine-3-carboxamide] |
| 10.2 nM | CC(=O)N1CCN(c2ccc(NC(=O)c3coc4c3C(=O)NC(C)(C)C4)c(O[C@H]3CCOC3)n2)CC1 [Example 181, N-{6-(4-acetylpiperazin-1-yl)-2-[(3S)-tetrahydrofuran-3-yloxy]pyridin-3-yl}-6,6-dimethyl-4-oxo-4,5,6,7-tetrahydrofuro[3,2-c]pyridine-3-carboxamide] |
| 17.8 nM | COCCOc1nc(N2CCN(C=O)CC2)ccc1NC(=O)c1coc2c1C(=O)NC(C)(C)C2 [Example 182, N-[6-(4-formylpiperazin-1-yl)-2-(2-methoxyethoxyl)pyridin-3-yl]-6,6-dimethyl-4-oxo-4,5,6,7-tetrahydrofuro[3,2-c]pyridine-3-carboxamide] |
| 4.8 nM | CC(=O)N1CCN(c2ccc(NC(=O)c3coc4c3C(=O)NC(C)(C)C4)c(OC3C[S+]([O-])C3)n2)CC1 (centres unmarked) [Example 183, N-{6-(4-acetylpiperazin-1-yl)-2-[(1-oxidothietan-3-yl)oxy]pyridin-3-yl}-6,6-dimethyl-4-oxo-4,5,6,7-tetrahydrofuro[3,2-c]pyridine-3-carboxamide] |
| 3.5 nM | CCOc1nc(C2CCN(C(C)=O)CC2)ccc1NC(=O)c1coc2c1C(=O)NC(C)(C)C2 [Example 184, N-[6-(1-acetylpiperidin-4-yl)-2-ethoxypyridin-3-yl]-6,6-dimethyl-4-oxo-4,5,6,7-tetrahydrofuro[3,2-c]pyridine-3-carboxamide] |
| 6.6 nM | CCOc1nc(N2CCN(C(C)=O)CC2)ccc1NC(=O)c1coc2c1C(=O)C(c1cc(F)ccc1F)CC2 (centres unmarked) [Example 185, N-[6-(4-acetylpiperazin-1-yl)-2-ethoxypyridin-3-yl]-5-(2,5-difluorophenyl)-4-oxo-4,5,6,7-tetrahydro-1-benzofuran-3-carboxamide] |
